Experimental data: US6191145A, “Orally-active nipecotamide glycolamide esters for the treatment of thrombosis disorders” (Ortho-McNeil Pharmaceutical, Inc., priority 1999, dated 2001)
Where a name gives a salt, the structure may show the parent alone.

Assays:
[1] = tested on: collagen-induced ex vivo platelet aggregation; assay: Ex vivo dog study: duration of >50% inhibition of collagen-induced ex vivo platelet aggregation; assay type: in vivo
Method: Adult mongrel dogs (8-13 kg) were anesthetized with sodium pentobarbital (35 mg/kg, i.v.) and artificially respired. Arterial blood pressure and heart rate were measured using a Millar catheter-tip pressure transducer inserted in a femoral artery. Another Millar transducer was placed in the left ventricle (LV) via a carotid artery to measure LV end diastolic pressure and indices of myocardial contractility. A lead II electrocardiogram was recorded from limb electrodes. Catheters were placed in a femoral artery and vein to sample blood and infuse drugs, respectively. Responses were continuously monitored using a Modular Instruments data aquisition system.
Arterial blood samples (5-9 ml) were withdrawn into tubes containing 3.8% sodium citrate to prepare platelet rich plasma (PRP) and to determine effects on coagulation parameters: prothrombin time (PT) and activated partial thromboplastin time (APTT). Separate blood samples (1.5 ml) were withdrawn in EDTA to determine hematocrit and cell counts (platelets, RBC's and white cells). Template bleeding times were obtained from the buccal surface using a symplate incision devise and Whatman filter paper.
Aggregation of PRP was performed using a BioData aggregometer. Aggregation of whole blood used a Chronolog impedance aggregometer. PT and APTT were determined on either a BioData or ACL 3000+ coagulation analyser. Cells were counted with a Sysmex K-1000.
Compounds were solubilized in a small volume of dimethylformamide (DMF) and diluted with saline to a final concentration of 10% DMF. Compounds were administered by the intravenous route with a Harvard infusion pump. Doses was administered over a 15 min interval at a constant rate of 0.33 ml/min. Data were obtained after each dose and in 30 min intervals following the end of drug administration. Oral doses were administered as aqueous solutions via syringe.

GPIIb/IIIa = GPIIb/IIIa (Homo sapiens, UniProt P05106+P08514); assay: In vitro solid phase purified glycoprotein IIb/IIIa binding assay (fibrinogen binding); details: for inhibition at 50 µM: read-out: Fibrinogen Binding % Inh. (50 μM)
Method: The plate is covered and incubated overnight at 4° C. The GPIIb/IIa solution is discarded and 150 μl of 5% BSA is added and incubated at RT for 1-3 h. The plate is washed extensively with modified Tyrodes buffer. Biotinylated fibrinogen (25 μl/well) at 2×final concentration is added to the wells that contain the test compounds (25 μl/well). The plate is covered and incubated at RT for 2-4 h. Twenty minutes prior to incubation completion, one drop of Reagent A (Vecta Stain ABC Horse Radish Peroxidase kit, Vector Laboratories, Inc.) and one drop Reagent B are added with mixing to 5 mL modified Tyrodes buffer mix and let stand. The ligand solution is discarded and the plate washed (5×200 μl/well) with modified Tyrodes buffer. Vecta Stain HRP-Biotin-Avidin reagent (50 μl/well, as prepared above) is added and incubated at RT for 15 min. The Vecta Stain solution is discarded and the wells washed (5×200 μl/well) with modified Tyrodes buffer. Developing buffer (10 mL of 50 mM citrate/phosphate buffer @ pH 5.3, 6 mg 2-phenylenediamine, 6 μl 30% H2 O2; 50 μl/well) is added and incubated at RT for 3-5 min, and then 2N H2 SO4 (50 μl/well) is added. The absorbance is read at 490 nm.

[2] = tested on: Thrombin-induced aggregation of gel-filtered platelets; assay: In vitro inhibition of thrombin-induced gel-filtered platelet aggregation; assay type: cell-based; details: Homo sapiens; for inhibition at 50 µM: read-out: Platelet Aggregation % Inh. (50 μM)
Method: The percentage of platelet aggregation is calculated as an increase in light transmission of compound-treated platelet concentrate vs. control-treated platelet concentrate. Human blood is obtained from drug free, normal donors into tubes containing 0.13M sodium citrate. Platelet rich plasma (PRP) is collected by centrifugation of whole blood at 200×g for 10 min at 25° C. The PRP (5 mL) is gel filtered through Sepharose 2B (bed volume 50 mL), and the platelet count is adjusted to 2×10^7 platelets per sample. The following constituents are added to a siliconized cuvette: concentrated platelet filtrate and Tyrode's buffer (0.14M NaCl, 0.0027M KCl, 0.012M NaHCO3,0.76 mM Na2 HPO4, 0.0055M glucose, 2 mg/mL BSA and 5.0 mM HEPES @ pH 7.4) in an amount equal to 350 μl, 50 μl of 20 mM calcium and 50 μl of the test compound. Aggregation is monitored in a BIODATA aggregometer for the 3 min following the addition of agonist (thrombin 50 μl of 1 unit/mL).

[3] = tested on: thrombin-induced platelet aggregation; details: L. Alig, J. Med. Chem. 1992, 35, 4393; read-out: IC50 against in vitro thrombin-induced platelet aggregation; cited from earlier work

Sequence of GPIIb/IIIa (P08514 32-887 limits assumed): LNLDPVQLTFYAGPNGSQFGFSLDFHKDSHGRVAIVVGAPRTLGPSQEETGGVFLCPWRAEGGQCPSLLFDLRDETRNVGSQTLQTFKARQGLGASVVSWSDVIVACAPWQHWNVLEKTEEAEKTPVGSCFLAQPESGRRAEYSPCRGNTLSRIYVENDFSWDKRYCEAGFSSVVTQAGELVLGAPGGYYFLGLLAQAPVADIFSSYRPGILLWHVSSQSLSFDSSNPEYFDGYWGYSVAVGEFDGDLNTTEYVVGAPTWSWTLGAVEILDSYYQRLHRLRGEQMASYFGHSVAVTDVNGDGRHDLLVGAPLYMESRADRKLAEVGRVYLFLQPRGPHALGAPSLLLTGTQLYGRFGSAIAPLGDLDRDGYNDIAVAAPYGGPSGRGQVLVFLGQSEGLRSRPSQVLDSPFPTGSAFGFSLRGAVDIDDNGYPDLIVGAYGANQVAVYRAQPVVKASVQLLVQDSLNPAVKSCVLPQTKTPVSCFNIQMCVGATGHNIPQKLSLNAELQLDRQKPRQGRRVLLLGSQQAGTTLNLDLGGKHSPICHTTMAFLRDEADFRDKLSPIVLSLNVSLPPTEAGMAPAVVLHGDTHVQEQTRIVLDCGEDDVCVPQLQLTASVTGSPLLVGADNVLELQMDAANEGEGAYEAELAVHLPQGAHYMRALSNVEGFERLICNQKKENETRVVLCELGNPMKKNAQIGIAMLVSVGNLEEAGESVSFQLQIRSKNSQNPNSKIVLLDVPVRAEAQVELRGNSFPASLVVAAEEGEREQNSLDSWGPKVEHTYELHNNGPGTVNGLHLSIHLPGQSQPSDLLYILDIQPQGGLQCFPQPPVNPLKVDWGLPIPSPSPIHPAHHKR
Sequence of GPIIb/IIIa (P08514 891-1039 limits assumed): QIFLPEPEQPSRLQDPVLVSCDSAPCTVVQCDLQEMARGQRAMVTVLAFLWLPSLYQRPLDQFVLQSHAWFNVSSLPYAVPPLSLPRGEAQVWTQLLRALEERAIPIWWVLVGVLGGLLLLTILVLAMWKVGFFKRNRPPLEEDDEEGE
Sequence of GPIIb/IIIa (P05106 27-788): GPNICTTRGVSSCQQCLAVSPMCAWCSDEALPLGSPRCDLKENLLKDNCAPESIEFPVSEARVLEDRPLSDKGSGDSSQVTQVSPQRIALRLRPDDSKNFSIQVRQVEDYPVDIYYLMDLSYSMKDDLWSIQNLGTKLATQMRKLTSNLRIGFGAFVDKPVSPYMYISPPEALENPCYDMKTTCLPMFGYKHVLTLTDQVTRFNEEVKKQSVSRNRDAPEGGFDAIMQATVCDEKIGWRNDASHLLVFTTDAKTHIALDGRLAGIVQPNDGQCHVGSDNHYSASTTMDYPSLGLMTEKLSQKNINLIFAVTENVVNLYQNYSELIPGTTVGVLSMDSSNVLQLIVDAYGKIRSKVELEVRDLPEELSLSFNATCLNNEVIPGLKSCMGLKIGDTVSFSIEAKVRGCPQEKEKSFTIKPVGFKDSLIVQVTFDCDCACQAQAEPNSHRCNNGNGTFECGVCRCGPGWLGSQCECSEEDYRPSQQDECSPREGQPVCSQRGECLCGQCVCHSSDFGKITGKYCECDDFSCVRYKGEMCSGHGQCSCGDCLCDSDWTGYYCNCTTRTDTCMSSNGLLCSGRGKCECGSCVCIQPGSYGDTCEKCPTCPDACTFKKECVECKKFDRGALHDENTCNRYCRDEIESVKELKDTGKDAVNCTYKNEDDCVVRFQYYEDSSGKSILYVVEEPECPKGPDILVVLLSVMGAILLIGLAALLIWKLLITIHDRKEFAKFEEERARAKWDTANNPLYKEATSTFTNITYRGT

O=C(N[C@@H](CNC(=O)[C@@H]1CCCN(C(=O)CCC2CCNCC2)C1)C(=O)O)OCc1ccccc1 [carboxylic acid congener, reference compound]
Duration of >50% inhibition of collagen-induced ex vivo platelet aggregation, oral dosing ([1]; 3 mpk): 180 min

CCN(CC)C(=O)COC(=O)C[C@H](NC(=O)[C@@H]1CCCN(C(=O)CCC2CCNCC2)C1)c1cccnc1 [Compound 1, N-3-(4-Piperidinepropionyl)-R-(-)-nipecotyl-[(S)-3-amino-3-(3-pyridyl)]propionic acid 2-(Diethylamino)-2-oxoethyl ester.2HCl]
IC50 (GPIIb/IIIa): 0.0007 µM | inhibition at 50 µM (GPIIb/IIIa): 100% | IC50 [2]: 0.14 µM | inhibition at 50 µM [2]: 100% | Duration of >50% inhibition of collagen-induced ex vivo platelet aggregation, intravenous dosing ([1]; 0.3 mpk): 60 min | Duration of >50% inhibition of collagen-induced ex vivo platelet aggregation, oral dosing ([1]; 3 mpk): > 180 min

CCN(CC)C(=O)COC(=O)C[C@H](NC(=O)[C@@H]1CCCN(C(=O)CCC2CCNCC2)C1)c1ccc2c(c1)OCO2 [Compound 2]
IC50 (GPIIb/IIIa): 0.005 µM | inhibition at 50 µM (GPIIb/IIIa): 100% | IC50 [2]: 1.1 µM | inhibition at 50 µM [2]: 100% | Duration of >50% inhibition of collagen-induced ex vivo platelet aggregation, intravenous dosing ([1]; 1.0 mpk): 120 min | Duration of >50% inhibition of collagen-induced ex vivo platelet aggregation, oral dosing ([1]; 3 mpk): 150 min

CN(CC(=O)c1ccc(OCC(=O)O)c(OCC(=O)O)c1)C(=O)c1ccc(C(=N)N)cc1 [Ro-438857]
IC50 [3]: 0.094 µM

CCN(CC)C(=O)COC(=O)[C@H](CNC(=O)[C@@H]1CCCN(C(=O)CCC2CCNCC2)C1)NC(=O)OCc1ccccc1 [Compound 4, N-3-(4-Piperidinepropionyl)-R-(-)nipecotyl-[(S)-2-benzyloxycarbonylamino-3-amino]propionic acid 2-(Diethylamino)-2-oxoethyl ester.HCl]
IC50 (GPIIb/IIIa): 0.002 µM | inhibition at 50 µM (GPIIb/IIIa): 100% | IC50 [2]: 0.29 µM | inhibition at 50 µM [2]: 100% | Duration of >50% inhibition of collagen-induced ex vivo platelet aggregation, intravenous dosing ([1]; 0.1 mpk): 60 min | Duration of >50% inhibition of collagen-induced ex vivo platelet aggregation, oral dosing ([1]; 3 mpk): > 240 min

CCN(CC)C(=O)COC(=O)[C@H](CNC(=O)[C@@H]1CCCN(C(=O)/C=C/C2CCNCC2)C1)NC(=O)OCc1ccccc1 [Compound 5, N-3-(4-Piperidinepropenoyl)-R-(-)nipecotyl-[(S)-2-benzyloxycarbonylamino-3-amino]propionic acid 2-(Diethylamino)-2-oxoethyl ester.HCl]
IC50 (GPIIb/IIIa): 0.0097 µM | inhibition at 50 µM (GPIIb/IIIa): 100% | IC50 [2]: 0.27 µM | inhibition at 50 µM [2]: 100% | Duration of >50% inhibition of collagen-induced ex vivo platelet aggregation, intravenous dosing ([1]; 0.1 mpk): 60 min | Duration of >50% inhibition of collagen-induced ex vivo platelet aggregation, oral dosing ([1]; 1 mpk): > 240 min

CCN(CC)C(=O)COC(=O)C[C@H](NC(=O)[C@@H]1CCCN(C(=O)CCC2CCNCC2)C1)c1cncc(Br)c1 [Compound 3]
IC50 (GPIIb/IIIa): 0.0009 µM | inhibition at 50 µM (GPIIb/IIIa): 100% | IC50 [2]: 0.19 µM | inhibition at 50 µM [2]: 100% | Duration of >50% inhibition of collagen-induced ex vivo platelet aggregation, oral dosing ([1]; 3 mpk): 90 min

O=C(N[C@@H](CNC(=O)[C@@H]1CCCN(C(=O)/C=C/C2CCNCC2)C1)C(=O)OCC(=O)N1CCCCC1)OCc1ccccc1 [Compound 6, N-3-(4-Piperidinepropenoyl)-R-(-)nipecotyl-[(S)-2-benzyloxycarbonylamino-3-amino]propionic acid 2-(Piperidino)-2-oxoethyl ester.HCl]
IC50 (GPIIb/IIIa): 0.0025 µM | inhibition at 50 µM (GPIIb/IIIa): 100% | IC50 [2]: 0.51 µM | inhibition at 50 µM [2]: 100% | Duration of >50% inhibition of collagen-induced ex vivo platelet aggregation, oral dosing ([1]; 1 mpk): 150 min
